Series [1] in a line: Drug level in deuterated phosphate buffer/D2O at pD 7 treated with 3-(2-Trimethylsilylethoxy)methylimidazotetrazine measured every 15 mins for 12 to 18 hrs by 1H NMR method.
Series [2] can be described thus: Drug level in deuterated phosphate buffer/D2O at pD 7 treated with 3-Trimethylsilylmethylimidazotetrazine measured every 15 mins for 12 to 18 hrs by 1H NMR method.
Series [3] has as its system SNB-19. The series can be described thus: Growth inhibition of vehicle-transfected human SNB19 cells after 7 days by MTT assay. The settings on record: SNB-19, 168 h. Format: functional. On the technique in general: Tetrazolium dyes change colour on reduction, which living cells bring about.
Series [4] deals with U373 MG. The experiment in a line: Growth inhibition of vehicle-transfected human U373 cells after 7 days by MTT assay. The series is classed as functional, U-373MG ATCC. The settings on record: 168 h.
In series [5] the test system is U373 MG. The experiment in a line: Growth inhibition of MGMT-transfected human U373 cells expressing MGMT after 7 days by MTT assay. Format: functional, U-373MG ATCC. The conditions noted are these: 168 h.
Series [6] concerns SNB-19. The experiment in a line: Growth inhibition of MGMT-transfected human SNB19 cells expressing MGMT after 7 days by MTT assay. The series is classed as functional. The settings on record: SNB-19, 168 h.

The source of these data is ChEMBL document CHEMBL4261573, “Synthesis and growth-inhibitory activities of imidazo[5,1-d]-1,2,3,5-tetrazine-8-carboxamides related to the anti-tumour drug temozolomide, with appended silicon, benzyl and heteromethyl groups at the 3-position” (Medchemcomm, 2018).

Regarding `NC(=O)c1[nH]cnc1N`, the Drug metabolism result in series [1] and in series [2] was “Metabolite_Detected” in each case.
For `C[Si](C)(C)CCO`, in series [1], the Drug metabolism result was “Metabolite_Detected”.
Consider `C[C@H](c1ccccc1)n1nnc2c(C(N)=O)ncn2c1=O`, for which the 50% growth inhibitory concentration (GI50) (as a rule, the concentration at which growth is held to half of that of the control) in the series with SNB-19 [3] was 32.7 µM; with U373 MG [4] it was more than 50 µM; in the series on U373 MG [5], more than 50 µM; in the series with SNB-19 [6], 49.7 µM.
As for `COc1ccc(Cn2nnc3c(C(N)=O)ncn3c2=O)cc1OC`, the 50% growth inhibitory concentration (GI50) in the series on SNB-19 [3], in the series with U373 MG [4], with U373 MG [5] and in the series with SNB-19 [6] was more than 50 µM each time.
For the compound `NC(=O)c1nc[nH]c1N/N=N/Cc1ccoc1`, the concentration for 50% growth inhibition (GI50) with SNB-19 [3], in the series on U373 MG [4], in the series with U373 MG [5] and with SNB-19 [6] was more than 50 µM in each case.
Take `NC(=O)c1ncn2c(=O)n(Cc3c[nH]nn3)nnc12`: the concentration for 50% growth inhibition (GI50) in the series with SNB-19 [3], in the series with U373 MG [4], in the series on U373 MG [5] and with SNB-19 [6] was more than 50 µM each time.
On to `NC(=O)c1ncn2c(=O)n(Cc3ccco3)nnc12`, for which the GI50 with SNB-19 [3], with U373 MG [4], in the series on U373 MG [5] and with SNB-19 [6] was more than 50 µM throughout.
On to `NC(=O)c1nc[nH]c1N/N=N/Cc1ccco1`, for which the GI50 in the series on SNB-19 [3], in the series with U373 MG [4], in the series with U373 MG [5] and with SNB-19 [6] was more than 50 µM throughout.
With `NC(=O)c1ncn2c(=O)n(Cc3ccsc3)nnc12`, the GI50 in the series on SNB-19 [3], with U373 MG [4], in the series on U373 MG [5] and in the series on SNB-19 [6] was more than 50 µM throughout.
In the case of `C[Si](C)(C)Cn1nnc2c(C(N)=O)ncn2c1=O`, the GI50 turned out to be 28.4 µM in the series on SNB-19 [3], 45.6 µM in the series on U373 MG [4], 250 µM with U373 MG [5] and 302 µM with SNB-19 [6].
For `NC(=O)c1ncn2c(=O)n(Cc3ccccc3)nnc12`, in that order: more than 50 µM, more than 50 µM, more than 50 µM and more than 50 µM.
Turning to `NC(=O)c1nc[nH]c1N/N=N/Cc1ccccc1`, the concentration for 50% growth inhibition (GI50) in the series with SNB-19 [3], in the series with U373 MG [4], in the series on U373 MG [5] and with SNB-19 [6] was more than 50 µM throughout.
Take `COc1ccc(Cn2nnc3c(C(N)=O)ncn3c2=O)c(OC)c1`: the GI50 in the series on SNB-19 [3], with U373 MG [4], with U373 MG [5] and with SNB-19 [6] was more than 50 µM each time.
For `COc1ccc([C@@H](C)n2nnc3c(C(N)=O)ncn3c2=O)cc1`, the GI50 in the series on SNB-19 [3], in the series with U373 MG [4], in the series with U373 MG [5] and in the series on SNB-19 [6] was more than 50 µM in each case.
As to `C=O.O`, the Drug metabolism result in series [1] is “Metabolite_Detected”.
In the case of `COc1cc(Cn2nnc3c(C(N)=O)ncn3c2=O)cc(OC)c1OC`, the GI50 with SNB-19 [3], in the series on U373 MG [4], with U373 MG [5] and in the series with SNB-19 [6] was more than 50 µM in each case.
On to `Cc1noc(Cn2nnc3c(C(N)=O)ncn3c2=O)n1`, for which the GI50 in the series on SNB-19 [3], with U373 MG [4], in the series on U373 MG [5] and in the series on SNB-19 [6] was more than 50 µM each time.
Turning to `NC(=O)c1nc[nH]c1N/N=N/CCc1ccccc1`, the concentration for 50% growth inhibition (GI50) with SNB-19 [3], with U373 MG [4], in the series on U373 MG [5] and in the series on SNB-19 [6] was more than 50 µM throughout.
`NC(=O)c1ncn2c(=O)n(C(c3ccccc3)c3ccccc3)nnc12`: the concentration for 50% growth inhibition (GI50) in the series on SNB-19 [3], in the series with U373 MG [4], in the series on U373 MG [5] and with SNB-19 [6] was more than 50 µM throughout.
`Cc1cc(Cn2nnc3c(C(N)=O)ncn3c2=O)on1`: the GI50 with SNB-19 [3], in the series on U373 MG [4], in the series on U373 MG [5] and in the series with SNB-19 [6] was more than 50 µM in each case.
Consider `COc1ccccc1Cn1nnc2c(C(N)=O)ncn2c1=O`, for which the GI50 in the series on SNB-19 [3], in the series on U373 MG [4], with U373 MG [5] and in the series with SNB-19 [6] was more than 50 µM in each case.
With `C[C@@H](c1ccccc1)n1nnc2c(C(N)=O)ncn2c1=O`, the GI50 was 34.7 µM in the series with SNB-19 [3], more than 50 µM in the series with U373 MG [4], more than 50 µM in the series with U373 MG [5] and 45.3 µM with SNB-19 [6].
As to `NC(=O)c1nc[nH]c1N/N=N/Cc1cccs1`, the GI50 in the series on SNB-19 [3], with U373 MG [4], in the series on U373 MG [5] and with SNB-19 [6] was more than 50 µM each time.
On to `C[Si](C)(C)CCOCn1nnc2c(C(N)=O)ncn2c1=O`, for which the 50% growth inhibitory concentration (GI50) in the series with SNB-19 [3] was 29.9 µM; with U373 MG [4], 25.3 µM; in the series on U373 MG [5] it was 24.2 µM; in the series with SNB-19 [6] it was 27.5 µM.
As for `NC(=O)c1ncn2c(=O)n(CCc3ccccc3)nnc12`, the concentration for 50% growth inhibition (GI50) in the series on SNB-19 [3], with U373 MG [4], in the series on U373 MG [5] and in the series on SNB-19 [6] was more than 50 µM each time.
Turning to `COc1cccc(Cn2nnc3c(C(N)=O)ncn3c2=O)c1`, the 50% growth inhibitory concentration (GI50) in the series with SNB-19 [3], with U373 MG [4], in the series with U373 MG [5] and in the series on SNB-19 [6] was more than 50 µM throughout.
Regarding `CC[C@@H](c1ccccc1)n1nnc2c(C(N)=O)ncn2c1=O`, the GI50 in the series on SNB-19 [3], in the series on U373 MG [4], with U373 MG [5] and in the series on SNB-19 [6] was more than 50 µM throughout.
For the compound `COc1ccc(Cn2nnc3c(C(N)=O)ncn3c2=O)cc1`, the GI50 in the series with SNB-19 [3], in the series on U373 MG [4], in the series on U373 MG [5] and in the series with SNB-19 [6] was more than 50 µM each time.
Turning to `NC(=O)c1nc[nH]c1N/N=N/Cc1ccsc1`, the 50% growth inhibitory concentration (GI50) in the series on SNB-19 [3], with U373 MG [4], in the series on U373 MG [5] and in the series with SNB-19 [6] was more than 50 µM in each case.
With `NC(=O)c1ncn2c(=O)n(Cc3cccs3)nnc12`, the GI50 with SNB-19 [3], in the series with U373 MG [4], with U373 MG [5] and with SNB-19 [6] was more than 50 µM each time.
As to `CC(c1ccc(Br)cc1)n1nnc2c(C(N)=O)ncn2c1=O` (racemic), the GI50 with SNB-19 [3], in the series on U373 MG [4], with U373 MG [5] and with SNB-19 [6] was more than 50 µM in each case.
For the compound `CO` [METHYL ALCOHOL], the Drug metabolism entry in series [2] is on record as “Metabolite_Detected”.
Turning to `COP(=O)(O)O` [PHOSPHORIC ACID MONOMETHYL ESTER], in series [2], the Drug metabolism entry is given as “Metabolite_Detected”.
As to `Cn1nnc2c(C(N)=O)ncn2c1=O` [TEMOZOLOMIDE], the GI50 with SNB-19 [3] is 35.7 µM; with U373 MG [4], 68 µM; in the series with U373 MG [5], 369 µM; in the series with SNB-19 [6] it was 470 µM.
